The source of these data is ChEMBL document CHEMBL1130792, “Studies on an immunosuppressive macrolactam, ascomycin: synthesis of a C-33 hydroxyl derivative” (Bioorg Med Chem Lett, 1998).

A short description of data set [1]: Distribution coefficient (Log D) value at pH 6.5. It is filed as physicochemical. Conditions: octanol/water, read-out: LogD6.5.
Data set [2] is described as follows: Distribution coefficent (Log D) value at pH 7.4. It is filed as physicochemical. Conditions: read-out: LogD7.4.
The nature of data set [3]: Solubility at pH 6.5. It is filed as physicochemical. As to conditions: buffer.
Data set [4] is described as follows: Solubility at pH 7.4. It is filed as physicochemical. As to conditions: buffer.
Data set [5] is filed under the species Homo sapiens. Nature of the data set: Compound was tested in vitro for inhibition of human mixed lymphocyte proliferation (HuMLR). The format is functional.
For data set [6], the system named is Rattus norvegicus. Put plainly: Compound was tested in vivo for immunosuppressive activity using rat popliteal lymph node (rPLN) hyperplasia assay. The format is functional.
For data set [7], the species on record is Homo sapiens. Nature of the data set: Compound was tested in vitro for inhibitory activity against human FKBP. The format is functional.
In data set [8] the test system is Rattus norvegicus. Nature of the data set: Compound was tested in vivo for immunosuppressive activity using rat popliteal lymph node (rPLN) hyperplasia assay at 3 mg/kg. The format is functional.
Data set [9] can be described thus: Compound was tested in vitro for inhibitory activity against human FK506 binding protein.

≈ marks a conversion by molar mass, not a printed value.

As a reminder, the solubility is the dissolved amount per volume that the medium holds. As usually defined, the IC50 is the concentration that gives 50% inhibition. A word on the ED50: it is the dose that gives a 50% effect, or the effect in half of the subjects. Regarding `CC[C@@H]1/C=C(\C)C[C@H](C)C[C@H](OC)[C@H]2O[C@@](O)(C(=O)C(=O)N3CCCC[C@H]3C(=O)O[C@H](/C(C)=C/[C@@H]3C[C@@H](O)[C@@H](O)[C@H](OC)C3)[C@H](C)[C@@H](O)CC1=O)[C@H](C)C[C@@H]2OC`, the logD is 3.6 in data set [1] and 3.4 in data set [2]. In addition, the solubility in data set [3] (read-out: Solubility) stood at 464 µg/mL (≈ 574 µM); in data set [4] it was 455 µg/mL (≈ 563 µM). The 50% inhibitory concentration (IC50) in data set [5] was found to be 0.17 nM; in data set [7] it was 1.21 nM. The compound further had an ED50 in [6] of 0.72 mg/kg.
The inhibition in vivo is the drop in the measured response relative to a control, in per cent. The low end stands for little suppression, the high end for strong suppression. With `CC[C@@H]1/C=C(\C)C[C@H](C)C[C@H](OC)[C@H]2O[C@@](O)(C(=O)C(=O)N3CCCC[C@H]3C(=O)O[C@H](/C(C)=C/[C@@H]3CC[C@@H](OC)[C@H](O)C3O)[C@H](C)[C@@H](O)CC1=O)[C@H](C)C[C@@H]2OC` (stereo partly drawn), the logD in data set [1] and in data set [2] was 3.9 each time. Besides, the solubility in [3] (read-out: Solubility) was determined as 294 µg/mL (≈ 364 µM); in data set [4] it was 245 µg/mL (≈ 303 µM). The values for the IC50 in data set [5] and in [7] were 0.72 nM and 39.2 nM, respectively. Moreover, in data set [8], testing at 3 mg/kg gave an inhibition in vivo of 36%.
For `CC[C@@H]1/C=C(\C)C[C@H](C)C[C@H](OC)[C@H]2O[C@@](O)(C(=O)C(=O)N3CCCC[C@H]3C(=O)O[C@H](/C(C)=C/[C@@H]3CC[C@@H](O)[C@H](OC)C3)[C@H](C)[C@@H](O)CC1=O)[C@H](C)C[C@@H]2OC` [ASCOMYCIN], the logD is 3.98 in data set [1] and 4.22 in data set [2]. Besides, the solubility stood at 1.6 µg/mL (≈ 2.02 µM) in [3] and 4.2 µg/mL (≈ 5.3 µM) in data set [4]. Moreover, the results for the half-maximal inhibitory concentration (IC50) in data set [5] and in data set [7] were 0.25 nM and 2.06 nM, respectively. Also, the ED50 in data set [6] came out at 0.31 mg/kg.
Take `C=CC[C@@H]1/C=C(\C)C[C@H](C)C[C@H](OC)[C@H]2O[C@@](O)(C(=O)C(=O)N3CCCC[C@H]3C(=O)O[C@H](/C(C)=C/[C@@H]3CC[C@@H](O)[C@H](OC)C3)[C@H](C)[C@@H](O)CC1=O)[C@H](C)C[C@@H]2OC` [TACROLIMUS ANHYDROUS]: the results for the logD in data set [1] and in data set [2] were 4.36 and 4.38, respectively. Further, the solubility in data set [3] (read-out: Solubility) stood at 1 µg/mL (≈ 1.24 µM); in [4], 5.2 µg/mL (≈ 6.47 µM). For the same compound, the 50% inhibitory concentration (IC50) in data set [9] is 2.54 nM; in [5], 0.37 nM. In [6], the 50% effect level (ED50) was put at a dose of 0.15 mg/kg.
